Test results published in US6211170A, “Azetidinone derivatives for the treatment of HCMV infections” (Boehringer Ingelheim (Canada) Ltd., priority 1998, dated 2001).
Where two headings read alike, the source gives them in different places.

Assays:
HCMV NO protease = target: T1, HCMV NO protease (Human cytomegalovirus, UniProt P16753); test: HCMV NO Protease Assay (fluorogenic substrate cleavage); type: biochemical; settings: HCMV NO protease 100 nM, substrate 5 μM, pH 8, 2.5 h at 30°
T1 construct: HCMV NO protease
Description: This particular assay determines the ability of a test compound to inhibit the activity (IC50) of HCMV protease. More specifically, in the assay described herein, the inhibitory activity of the test compound is evaluated on the basis of its ability to interfere with the HCMV NO protease cleavage of a fluorogenic peptide substrate which in turn is based on the maturation cleavage site of the enzyme.
1. HCMV NO Protease Assay
Material & Methods: Fluorescence measurements were recorded on a Perkin-Elmer LS-50B spectrofluorimeter equipped with a plate reader accessory. UV measurements were recorded on a Thermomax® microplate reader from Molecular Devices Corporation, Menlo Park, Calif., USA.
HCMV NO protease was assayed with an internally quenched fluorogenic substrate based on the maturation cleavage site (Abz-[…](3-NO2)R--OH, kcat /KM =260 M^-1 s^-1). The fluorescence increase upon cleavage of the Ala-Ser amide bond was monitored using excitation λ=312 nm (slit 2.5 nm) and emission λ=415 nm (slit 5 nm). A protocol adaptable to a 96-well plate format was designed for the determination of IC50 values of inhibitors.
After this period, enzymatic hydrolysis of the fluorogenic substrate in the absence of inhibitor led to about a 30% conversion. Quenching was not required before fluorescence measurement since the total scanning time by the plate reader accessory was brief relative to the duration of the reaction. The aqueous incubation buffer contained 50 mM tris(hydroxymethyl)aminomethane.HCl pH 8, 0.5M Na2 SO4, 50 mM NaCl, 0.1 mM EDTA, 1 mM tris(2-carboxyethyl)phosphine.HCl, 3% v/v DMSO and 0.05% w/v casein. The final concentrations of HCMV NO protease (expressed in terms of total monomer concentration) and substrate were 100 nM and 5 μM respectively. IC50 values were obtained through fitting of the inhibition curve to a competitive inhibition model using SAS NLIN procedure. The mode of inhibition was determined by measurements of the initial rates (in cuvettes) at various substrate concentrations in the buffer as described above. The IC50 values listed in the following tables were obtained according to this assay.

[1] = test system: HCMV (strain AD169, ATCC VR-538); test: Plaque Reduction Assay (PRA) in HCMV-infected Hs-68 cells; type: cell-based, human cytomegalovirus (HCMV)
Description: B. Plaque Reduction Assay (PRA):
Hs-68 cells (ATCC # CRL 1635) were seeded in 12-well plates at 83,000 cells/well in 1 mL of DMEM medium (Gibco Canada Inc.) supplemented with 10% fetal bovine serum (FBS, Gibco Canada Inc.). The plates were incubated for 3 days at 37° to allow the cells to reach 80-90% confluency prior to the assay.
The medium was removed from the cells by aspiration. The cells were then infected with approximately 50 PFU of HCMV (strain AD169, ATCC VR-538) in DMEM medium supplemented with 5% inactivated FBS (assay medium). (DMEM medium is commercially available and has been described by R. Dulbecco et al., Virology 1959, 8, 396.) The virus was allowed to adsorb to cells for 2 h at 37°. Following viral adsorption, the medium was removed from the wells by aspiration. The cells were then incubated with or without 1 mL of appropriate concentrations of test reagent in assay medium. Occasionally, test compounds were added 24 h post-infection. After 4 days of incubation at 37°, the medium was exchanged with fresh medium containing test compound and 4 days later the cells were fixed with 1% aqueous formaldehyde and stained with a 2% violet solution in 20% ethanol in water. Microscopic plaques were counted using a stereomicroscope. Drug effects were calculated as a percent reduction in the number of plaques in the presence of each drug concentration compared to the number observed in the absence of drug. Ganciclovir was used as a positive control in all experiments.

[2] = Cytotoxicity, tetrazolium salt (MTT) metabolic assay; type: cell-based; settings: cytotoxic effects, read-out: TC50 (the source's name)
Description: Cytotoxic effects noted as TC50 in the following tables were determined according to the tetrazolium salt (MTT) metabolic assay, F. Denizot and F. Lang, J. Immun. Meth., 1986, 89, 271.

[3] = Human betaherpesvirus 5, Hs68, 192 h, plaque reduction, HCMV strain AD169, Hs-68 cells, 8 days, read-out: EC50
[4] = Human betaherpesvirus 5, AD169, Hs68, 192 h

T1 sequence (P16753 1-256): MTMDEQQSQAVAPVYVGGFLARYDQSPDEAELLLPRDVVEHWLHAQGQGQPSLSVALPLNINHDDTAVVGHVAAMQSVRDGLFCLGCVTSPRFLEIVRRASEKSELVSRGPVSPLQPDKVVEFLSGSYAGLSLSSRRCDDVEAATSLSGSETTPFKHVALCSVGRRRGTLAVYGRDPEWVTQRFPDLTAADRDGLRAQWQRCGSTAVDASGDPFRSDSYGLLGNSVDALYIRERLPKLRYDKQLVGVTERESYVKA

SMILES | IC50 (HCMV NO protease) | EC50 [1, 3] | CC50 [2] | EC50 [1, 4]
CC[C@@H](NC(=O)N1C(=O)[C@@H](C)[C@@H]1CSc1ccc(OC)cc1)c1ccccc1 [Entry 122] | 4.8 µM | > 250 µM | > 250 µM | 
COC(=O)c1ccc(CN(C)C(=O)N2C(=O)C[C@@H]2CSc2ncccn2)cc1 [Entry 302] | 3.9 µM | 170 µM | > 250 µM | 
CC[C@@H](NC(=O)N1C(=O)C[C@@H]1COC(=O)c1cccc2ccccc12)c1ccccc1 [Entry 134] | 0.46 µM |  | > 13 µM | 9 µM
COC(=O)c1ccc(CN(C)C(=O)N2C(=O)C[C@@H]2CSc2nccc(C)n2)cc1 [Entry 307] | 3.5 µM | 105 µM | > 250 µM | 
CN(Cc1ccc2c(c1)OCO2)C(=O)N1C(=O)C[C@@H]1CSc1ncccn1 [Entry 317] | 9 µM | 140 µM | > 249 µM | 
O=C1C[C@H](CSc2ccccc2)N1C(=O)NCc1ccncc1 [Entry 201, 2-oxo-4(R)-(phenylsulfanylmethyl) azetidine-1-carboxylic acid (pyridin-4-ylmethyl)amide] | 7.9 µM | 75 µM | > 270 µM | 
CC[C@@H](NC(=O)N1C(=O)[C@@H](C)[C@@H]1CSc1ccncc1)c1ccccc1 [Entry 118] | 1.6 µM | 55 µM | 199 µM | 
CC[C@@H](NC(=O)N1C(=O)C[C@@H]1COC(=O)c1ccccc1)c1ccccc1 [Entry 145] | 0.12 µM |  | 250 µM | 250 µM
O=C1C[C@H](CSc2ncccn2)N1C(=O)N1CCC[C@@H]1c1ccccc1 [Entry 403, 1-(2(R)-phenyl-pyrrolidine-1-carbonyl)-4-(pyrimidin-2-ylsulfanylmethyl)azetidin-2-one] | 14 µM | 95 µM | > 250 µM | 
CC[C@@H](NC(=O)N1C(=O)C[C@@H]1CSc1ncccn1)c1ccccc1 [Entry 104, 2-oxo-4(R)-(pyrimidin-2-ylsulfanylmethyl)azetidine-1-carboxylic acid (1(R)-phenylpropyl)amide] | 2.8 µM | 120 µM | > 209 µM | 
CC[C@@H](NC(=O)N1C(=O)C[C@@H]1CSc1nc(C)cc(C)n1)c1ccccc1 [Entry 105] | 4.6 µM | 88 µM | > 250 µM | 
